Source: US10300027B2, “Effective sensitizing dose of a gelled immunomodulating topical composition” (Phio Pharmaceuticals Corp., priority 2010, dated 2019)
Several values for one entry are separate records, joined by “and”; a condition that tells them apart may be missing. Equal values may be shown once.

Experiments:
non-genital warts [1] = assay: Example 1: randomized, double-blind, placebo control study of low dose DPCP gel for non-genital warts; format: in vivo, human
Description: Patients were initially sensitized with 0.4% DPCP gel at the primary wart site. Approximately 14 days later and weekly thereafter for various periods, a challenge dose is then applied. A challenge dose of 0.04% DPCP was employed. The DPCP used was incorporated in a unique blend of surfactants, a viscosity agent, and a preservative.
A single center, randomized, double-blind, placebo control study using low dose DPCP in a non-volatile vehicle for the treatment of non-genital warts was conducted. Patients were assigned to a treatment or placebo group in a 2:1 fashion. The two study gels were identical in appearance. The treatment group was sensitized with 0.1 ml of 0.4% DPCP gel which was applied to the inner arm and washed off in 24 hours. Fourteen days after the sensitization dose, 0.1 ml of 0.04% DPCP gel was applied to each wart, up to a total of 4 warts, for 7 consecutive weeks (Day 14, 21, 28, 35, 42, 49, 56). A final follow-up examination was performed on day 70. Patients were assessed at baseline and during each of 7 week treatment visits and on day 70 follow up.
Efficacy was based on Lesion Surface Area. The size of each qualifying verruca wart was determined at each visit by measuring the longest dimension (long axis) and the corresponding widest dimension (90 to the long axis).
Immunotherapeutic responses were characterized by grading the erythema, edema, induration, and scaling on a four-point scale: 0 (none) to 4 severe at each visit.
Efficacy endpoints were determined based on the percent of patients achieving complete and partial eradication as measured by IGAS and reductions in warts lesion surface area. Subjects were assessed for the extent of their immunotherapeutic response to treatment based upon the degree of erythema, edema, induration and scaling. Safety was evaluated at each visit by recording and grading adverse events and ease of ambulation 4 point grading system was used.
Adults 18-75 years of age in general good health with at least one non-genital cutaneous wart 5-20 mm in size were eligible for participation in the study. […] Pregnant or nursing women were excluded. Patients with unstable medical condition or history of immunosuppression were excluded. Use of systemic steroids, immunosuppressants, immunomodulators or cimetidine was not allowed for 4 weeks prior to enrollment. Any prior wart therapy was not allowed for 4 weeks. […] Patients could not be actively enrolled in another clinical trial within the previous 30 days.

[2] = general statement, no test described; cited from earlier work
non-genital warts [3] = assay: Example 2: randomized, double-blind, placebo control study, 0.04% DPCP gel twice a week for non-genital warts; format: in vivo, human; set-up: key to Clearance Score: 3 points=Complete clearance; 2 points=partial clearance: >50% reduction in the area of all treated wart; 1 point=partial eradication: <50% reduction in the area of all treated warts; 0 points=treatment failure: complete or partial eradication not achieved; conditions: for Clearance Score: per wart of one subject
Description: Institutional review board approval was obtained for this study, which was performed using Good Clinical Practice Guidelines and was compliant with the Code of Federal Regulation of the US Food and Drug Administration. A single center, 24 subject, randomized, double-blind, placebo control study using low dose DPCP in a non-volatile vehicle for the treatment of non-genital warts of established.
Patients are assigned to a treatment or placebo group in a 2:1 fashion. The two study gels are identical in appearance. Both groups are sensitized with 0.1 ml of 0.4% DPCP gel which is applied to the inner arm and washed off in 24 hours. Fourteen days after the sensitization dose, 0.1 ml of 0.04% DPCP gel or placebo is applied to each wart, up to a total of 4 warts, […] for 7 consecutive weeks (Day 14, 21, 28, 35, 42, 49, 56, […]). A final follow-up examination is performed on day 77. Patients are assessed at baseline and during office visits on days 14, 28, and 63 and on the day 77 follow up visit.
Efficacy is based on Lesion Surface Area. The size of each qualifying verruca wart is determined at each visit by measuring the longest dimension (long axis) and the corresponding widest dimension (90 to the long axis).
Investigator's Global Assessment Score (IGAS) is calculated based upon the following 4 point scale: 3 points=Complete clearance; 2 points=partial clearance: >50% reduction in the area of all treated wart; 1 point=partial eradication: <50% reduction in the area of all treated warts; 0 points=treatment failure: complete or partial eradication not achieved.
Immunotherapeutic responses are characterized by grading the erythema, edema, induration, and scaling on a four-point scale: 0 (none) to 4 severe at each visit.
Efficacy endpoints are determined based on the percent of patients achieving complete and partial eradication as measured by IGAS and reductions in warts lesion surface area. Subjects are assessed for the extent of their immunotherapeutic response to treatment based upon the degree of erythema, edema, induration and scaling. Safety is evaluated at each visit by recording and grading adverse events and ease of ambulation 4 point grading system is used.
All subjects (both treated and placebo groups) are sensitized with the initial sensitizing dose of 0.4% DPCP gel applied directly to one target wart and to the inner aspect of the right arm and then covered with an occlusive adhesive bandage pad for 24 hours.
The Investigator can determine if sensitization occurred at either of the application sites. If on day 14, the first “treatment visit”, no visible evidence of skin sensitization is observed then the subject can be dropped from the study. If on day 14 the investigator determines that sensitization has occurred, than the first treatment dose using the challenge dose (0.04% DPCP gel or placebo) randomly assigned upon enrollment can be administered by the investigator to all target warts and then covered with an occlusive adhesive bandage pad for 24 hours.
The patient is provided with a tube containing the appropriate challenge product (0.04% DPCP gel or placebo) with detailed instructions on how to apply the product two times per week and the proper handling and storage of the product between applications.
Two times per week the patient can apply the treatment dose (0.04% DPCP gel or placebo) to all target warts and then cover with an occlusive adhesive bandage pad for 24 hours.
The Investigator can apply the treatment dose (0.04% DPCP gel or placebo) to all target warts and then cover with an occlusive adhesive bandage pad for 24 hours.
The Investigator can apply the treatment dose (0.04% DPCP gel or placebo) to all target warts and then cover with an occlusive adhesive bandage pad for 24 hours. […] This is the final treatment. The patient is instructed to stop at home treatments and should return any unused gel. […]

[4] = 0.4% sensitizing dose, 0.04% challenge dose weekly
[5] = 0.4% sensitizing dose, 0.04% challenge dose twice a week

O=c1c(-c2ccccc2)c1-c1ccccc1 [DPCP, diphenylcyclopropenone]
side effects reported (non-genital warts [1]; [4]): No significant side effects were reported other than skin rash at the sensitization site
tolerability reported by patients (non-genital warts [1]; [4]): highly tolerable
subjects who obtained a clinical response/improvement (non-genital warts [1]; DPCP group, 8 subjects, 0.4% sensitizing dose, then 0.04% gel weekly for 7 weeks): 100%
warts with complete clearance (non-genital warts [1]; DPCP group, 11 of 25 warts, vs 1 of 15 vehicle treated warts, p=0.01): 44%
warts with partial to complete clearance (non-genital warts [1]; DPCP group, 19/25 warts, 0.4% sensitizing dose, then 0.04% gel weekly for 7 weeks): 76%
severe reactions at the application site (non-genital warts [1]; challenge dose of 0.04% DPCP after 0.4% sensitizing dose): did not result in observable severe reactions at the application site
surrounding untreated warts completely cleared (non-genital warts [1]; one subject with numerous mosaic warts on the plantar foot, the 4 treated warts also completely cleared): > 50
mutagenicity, teratogenicity and organ toxicity [2]: not mutagenic, teratogenic and has no organ toxicity
sensitization (non-genital warts [3]; 0.4% DPCP sensitization dose given to both treatment and placebo group, 7 subjects): all were successfully sensitized
side effects reported (non-genital warts [3]; [5]): No significant side effects were reported other than skin rash at the sensitization site
tolerability reported by patients (non-genital warts [3]; [5]): highly tolerable
treated warts that achieved greater than 50% clearance (non-genital warts [3]; DPCP group, 1 of 6 warts): 16%
treated warts that exhibited no clearance (non-genital warts [3]; DPCP group, 1 of 6 warts): 16%
treated warts with complete clearance (non-genital warts [3]; DPCP group, 4/6 warts, 0.04% gel twice a week): 67%
subjects who obtained a clinical response/improvement (non-genital warts [3]; DPCP group, 4 of 5 subjects, 0.04% gel twice a week for 7 weeks): 80%
Clearance Score (non-genital warts [3]; at 5 weeks, 0.04% gel twice a week): 5 weeks + 3
Clearance Score (non-genital warts [3]; at 7 weeks, 0.04% gel twice a week, listed as DPC): 7 weeks 0 and 7 weeks + 3 (3×) and 7 weeks + 2 (2 points=partial clearance: >50% reduction in the area of all treated wart)
